Experimental findings from US12016876B2, “Micro-RNAs and compositions comprising same for the treatment and diagnosis of serotonin-, adrenalin-, noradrenalin-, glutamate-, and corticotropin-releasing hormone- associated medical conditions” (Yeda Research and Development Co. Ltd., priority 2011, dated 2024) are described below.

The test system of series [1] is miR-135a. Nature of the series: miR-135a levels after antidepressant treatment, real time PCR. Particulars: for miR-135a levels in the RN: acute or chronic administration, 20 mg/kg i.p. In general terms: In qPCR the cycle at which signal appears reflects the starting amount.
The test system of series [2] is mice. Put plainly: Tail suspension test. The series is classed as in vivo. As for the experimental part:
The tail suspension test was performed in the TSE Tail Suspension Monitor (TSE Systems, Bad Homburg, Germany). Each mouse was taped by the tip of its tail, and suspended from the force sensor for 10 minutes. Time spent immobile and time spent struggling were calculated and recorded by the software based on pre-set thresholds.

Series [3] deals with mice. Put plainly: Forced swim test. The series is classed as in vivo. As for the experimental part: The […] was performed as previously described [Krishnan V and Nestler E J, Nature (2008) 455: 894-902]. In short, the apparatus used was a plastic bucket, 18 cm of diameter, filled with 25° C. water to a depth of 15 cm. Each mouse was placed in the center of the bucket to initiate a 6 minutes video recorded test session. The duration of time spent immobile during the 2-6 minute of testing was automatically scored using Eto Vision XT (Noldus, Wageningen, Netherlands).

For series [4], the system named is miR-135b. Put plainly: miR-135b levels after antidepressant treatment, real time PCR. The conditions noted are these: for miR-135b levels in the RN: acute or chronic administration, 20 mg/kg i.p.
Series [5] relates to miR-19a. Nature of the series: miR-19a levels in PFC after Reboxetine. The class given is in vivo, mice. The method, then: (§1) Mice received i.p. injection of tricyclic-Imipramine, or SSRI-Fluoxetine, or NRI-Reboxetine (20 mg/kg in saline) or saline.
(§2) These animals will be also tested for anxiety like behavior, locomotor activity and memory performance. Furthermore, the levels of expression of miR-19a and miR-19b are examined in different regions of interest (E.G the hippocampus, amygdala and forebrain) following an acute and chronic systemic treatment with the Noradrenaline reuptake inhibitor Reboxetine in WT mice.

Series [6] has as its system miR-19b. Put plainly: miR-19b levels in PFC after Reboxetine. The series is classed as in vivo, mice. As for the experimental part: as §1, §2
Series [7] concerns Slc6a4 3′UTR. Put plainly: Luciferase reporter assay, Slc6a4 3′UTR, HEK293T cells. Particulars: for repression of Slc6a4 3′UTR luciferase reporter: miR over-expressing vector vs empty vector, HEK293T; for repression with Slc6a4 3′UTR mutated in miR-135 seed match: mutated 3′UTR lacking miR-135 seed match. The class given is cell-based, mouse. The text has this:
(§3) 3′UTR sequences of Slc6a4, Htr1a, MaoA and Tph2 were PCR amplified from mouse genomic DNA, or total brain cDNA. 3′UTR PCR fragments were ligated into pGEM-T easy vector (Promega) according to the manufacturer's guidelines, and further subcloned into a single NotI site at the 3′ end of luciferase in the Psicheck2 reporter plasmid (Promega). Mutated 3′ UTR sequences, lacking miR-135 seed sequences, were synthesized with primers overhangs across the seed match sequence. Cloning orientation was verified by diagnostic cuts and by sequencing.
(§4) HEK293T cells were grown on poly-L-lysine in 48-well format to a 70-85% confluence and transfected using Polyethyleneimine with the following plasmids: 5 ng of Psicheck2-3′UTR plasmid and 215 ng of over-expressing vector for a specific miRNA, or empty-miR-vec over-expression plasmids. 24 hours following transfection cells were lysed and luciferase reporters activity were assayed as previously described [Chen A. et al. Mol Endocrinol (2005) 19: 441-58]. Renilla luciferase values were normalized to control firefly luciferase levels (transcribed from the same vector but not affected by 3′UTR tested) and averaged across six well repetitions per condition.
Background: In a reporter assay the amount or activity of a reporter protein is the signal.

Series [8] has as its system Htr1a 3′UTR. Nature of the series: Luciferase reporter assay, Htr1a 3′UTR, HEK293T cells. Particulars: for seed matches through which Htr1a 3′UTR is repressed: Htr1a miR-135 seed matches mutated individually or both; for repression of Htr1a 3′UTR luciferase reporter: miR over-expressing vector vs empty vector, HEK293T. The class given is cell-based, mouse.
Source text: as §3, §4
3′UTR sequence of Htr1a was PCR amplified from mouse genomic DNA. 3′UTR PCR fragments were ligated into pGEM-T easy vector (Promega) according to the manufacturer's guidelines, and further subcloned into a single NotI site at the 3′ end of luciferase in the Psicheck2 reporter plasmid (Promega). Cloning orientation was verified by diagnostic cuts and by sequencing.
as §4, with “plasmids:” for “plasmids: 5 ng of”, “Psicheck2-3′UTR plasmid, pre-mmu-miR-182 over-expression in pEGFP” for “Psicheck2-3′UTR”, “plasmid” for “plasmid and 215 ng of over-expressing vector for a specific miRNA,”, “pEGFP plasmid alone (clontech).” for “empty-miR-vec over-expression plasmids.”

In series [9] the test system is mice. Put plainly: Home cage locomotor activity. The class given is in vivo. Particulars: lentiviral miR-135b over-expression in RN. The method, then:
To control for the possibility of behavioral effects originating from differences in ambulatory movement, locomotor activity of mice was examined over a 48 hours period, which proceeded a few days of habituation. Mice were single housed in specialized home cages and locomotion was measured using the InfraMot system (TSE Systems, Bad Hamburg, Germany).

For series [10], the system named is miR-135b. Put plainly: Lentiviral over-expression of miR-135b in RN, real time PCR. Particulars: lentiviruses over-expressing miR-135b injected into RN, vs control lentiviruses.
In series [11] the test system is L1cam 3′UTR. Put plainly: Luciferase assay, L1cam 3′UTR, N2a cells. The series is classed as cell-based. The method, then:
(§5) Using a luciferase assay, eleven predicted target genes of miR182, chosen after extensive bioinformatics, were examined (FIG. 27A).
(§6) Similar verification for Dscam and Htr1a with mutated 3′UTR are performed.

Series [12] has as its system miR-182. Nature of the series: miR-182 over-expression lentiviruses in N2a cell line, real time PCR. Particulars: N2a cells infected with over-expression lentiviruses vs control.
Series [13] concerns Dscam 3′UTR. Put plainly: Luciferase assay, Dscam 3′UTR, N2a cells. The class given is cell-based.
Source text: as §5

The subject of series [14] is Tsnax 3′UTR. Put plainly: Luciferase assay, Tsnax 3′UTR, N2a cells. The series is classed as cell-based. The method, then: as §5, §6
The mark [15] stands for this setting: acute and chronic administration.
The mark [16] stands for this setting: chronic administration (18 days).

Take `CNCCC(Oc1ccc(C(F)(F)F)cc1)c1ccccc1` (stereo not drawn) [Fluoxetine]: in series [1] (acute administration), the “miR135a levels in the AMY” value is “upregulated” and the “miR135a levels in the PFC” value is “not significantly altered”. Also, in series [1] (setting [15]), the “circulating miR-135a levels in plasma” value is given as “robust decrease”. The “miR-135a levels in the RN” value in series [1] is “robust increase”. In series [1] (chronic administration), the “miR135a levels in the AMY” value is on record as “not by chronic administration” and the “miR135a levels in the PFC” value is on record as “decreased”. In addition, the “immobility time, tail suspension test” value in series [2] (SSRI treatment vs basal, miR135KD and control KD mice) was “decrease in immobility time”. Also, the “immobility time, forced swim test” value in series [3] (SSRI treatment, miR135KD and control KD mice) was “reduced”. Besides, in series [4] (acute administration), the “miR135b levels in the AMY” value is on record as “upregulated” and the “miR135b levels in the PFC” value is “upregulated”. Moreover, the “circulating miR-135b levels in plasma” value in series [4] (setting [15]) is recorded as “no effect”. Further, the “miR-135b levels in the RN” value in [4] was “unaltered”. In series [4] (chronic administration), the “miR135b levels in the AMY” value is reported as “not by chronic administration” and the “miR135b levels in the PFC” value was “decreased”.

Regarding `CN(C)CCCN1c2ccccc2CCc2ccccc21` [Imipramine], the “miR-135a levels in the RN” value in series [1] is “increased”. For the same molecule, the “miR-135b levels in the RN” value in series [4] is “increased”.

Consider `CCOc1ccccc1OC(c1ccccc1)C1CNCCO1` (stereo not drawn) [Reboxetine], for which the results for the “miR-19a levels in the PFC” value in [5] (acute administration (once)) and in series [5] (setting [16]) were “down regulated” and “upregulated”, respectively. In addition, the “miR135a levels in the AMY” value is “upregulated” in series [1] (acute administration) and “not by chronic administration” in series [1] (chronic administration). Also, the “miR135a levels in the PFC” value in series [1] (acute administration) is recorded as “not significantly altered”. The “miR-135a levels in the RN” value in series [1] was “not”. Further, the “miR-19b levels in the PFC” value is recorded as “down regulated” in series [6] (acute administration (once)) and “upregulated” in series [6] (setting [16]). Moreover, the “miR135b levels in the AMY” value is “upregulated” in [4] (acute administration) and “not by chronic administration” in series [4] (chronic administration). For the same molecule, in [4] (acute administration), the “miR135b levels in the PFC” value is on record as “upregulated”. In addition, in series [4], the “miR-135b levels in the RN” value is on record as “unaltered”.

On to “miR-135a: microRNA over-expressed from a vector; SEQ ID NO: 24 (AGUGUAUCCUUAUUUUUCGGUAU; listed as Mus musculus)”, for which, in series [7], the “repression of Slc6a4 3′UTR luciferase reporter” value is on record as “approximately 30%” and the “repression with Slc6a4 3′UTR mutated in miR-135 seed match” value is reported as “fully blocked”. Further, in series [8], the “seed matches through which Htr1a 3′UTR is repressed” value is “via the distal and not the proximal seed match”; the “repression of Htr1a 3′UTR luciferase reporter” value is “approximately 30%”.

Regarding “miR-135b: microRNA over-expressed from plasmid or neuron-specific lentivirus (pre-miR-135b); SEQ ID NO: 26 (AGUGUAUCCUUACUUUUCGGUAU; listed as Mus musculus)”, in series [9], the home cage locomotion entry was “without any observed change”. For the same molecule, in series [7], the “repression of Slc6a4 3′UTR luciferase reporter” value is “approximately 50%” and the “repression with Slc6a4 3′UTR mutated in miR-135 seed match” value is listed as “fully blocked”. For the same molecule, the “immobility time, tail suspension test” value in series [2] (lentiviral miR-135b over-expression in RN, after chronic social defeat, last 5 min) is reported as “reduced immobility time”. In [8], the “seed matches through which Htr1a 3′UTR is repressed” value is on record as “via both predicted sites” and the “repression of Htr1a 3′UTR luciferase reporter” value is given as “approximately 50%”. The “immobility time, forced swim test” value in series [3] (lentiviral miR-135b over-expression in RN, after chronic social defeat) is on record as “reduced immobility time”. Besides, the “induction of miR-135b levels in RN” value in series [10] is 10 fold.

B1: miR-182: pre-mmu-miR-182 over-expression in pEGFP plasmid or lentiviruses (nucleic acid, listed as Homo sapiens)
chain 1: GAGCUGCUUGCCUCCCCCCGUUUUUGGCAAUGGUAGAACUCACACUGGUGAGGUAACAGGAUCCGGUGGUUCUAGACUUGCCAACUAUGGGGCGAGGACUCAGCCGGCAC
chain 2: UUUGGCAAUGGUAGAACUCACACCG
For B1, in series [11] (N2a cells), the “effect on L1cam 3′UTR luciferase” value is reported as “represoric effect”. In addition, the “effect on L1cam 3′UTR with mutated seed match” value in series [11] (mutated 3′UTR) is listed as “abolished”. Further, in series [8], the “repression of Htr1a 3′UTR luciferase reporter” value is reported as “strong repression”. For the same molecule, in [12], the “miR-182 levels in infected cells” value is recorded as “increased miR-182 levels”. For the same molecule, the “effect on Dscam 3′UTR luciferase” value in [13] is recorded as “represoric effect”. Moreover, the “effect on Tsnax 3′UTR luciferase” value in series [14] (N2a cells) is “represoric effect”. Also, the “effect on Tsnax 3′UTR with mutated seed match” value in series [14] (mutated 3′UTR) was “abolished”.

B2: miR-335: microRNA over-expressed from a vector (nucleic acid, listed as Homo sapiens)
chain 1: UGUUUUGAGCGGGGGUCAAGAGCAAUAACGAAAAAUGUUUGUCAUAAACCGUUUUUCAUUAUUGCUCCUGACCUCCUCUCAUUUGCUAUAUUCA
chain 2: UCAAGAGCAAUAACGAAAAAUGU
B2: the “repression of Htr1a 3′UTR luciferase reporter” value in [8] is given as “significant repression”.
